Data taken from patent US10952992B2, “Methods of treating intraocular pressure with activators of Tie-2” (Aerpio Pharmaceuticals, Inc., priority 2015, dated 2021).
Where “and” joins values, the source holds several entries; their conditions need not be identical. Equal entries are not always repeated.

Test: Example 2 iris, retina, choroid and cornea tissue concentrations
Assay type: in vivo, male New Zealand White rabbits
Conditions: for Choroid tissue Conc. OD / Cornea Conc. OD / Cornea tissue Conc. OD / Iris Conc. OD / Iris tissue Conc. OD / Retina Conc. OD / Retina tissue Conc. OD: right eye; for Choroid tissue Conc. OD / Choroid tissue Conc. OS / Cornea Conc. OS / Cornea Conc. OD / Cornea tissue Conc. OS / Cornea tissue Conc. OD / Iris Conc. OS / Iris Conc. OD / Iris tissue Conc. OS / Iris tissue Conc. OD / Retina Conc. OS / Retina Conc. OD / Retina tissue Conc. OS / Retina tissue Conc. OD: individual animals; for Choroid tissue Conc. OD / Choroid tissue Conc. Avg. / Choroid tissue Conc. OS / Cornea Conc. OS / Cornea Conc. OD / Cornea tissue Conc. Avg. / Cornea tissue Conc. OS / Cornea tissue Conc. OD / Iris Conc. OS / Iris Conc. OD / Iris tissue Conc. Avg. / Iris tissue Conc. OS / Iris tissue Conc. OD / Retina Conc. OS / Retina Conc. OD / Retina tissue Conc. Avg. / Retina tissue Conc. OS / Retina tissue Conc. OD: intravitreal 2.5 mg/eye (~1.54 mg/kg), group 5; for Choroid tissue Conc. Avg. / Cornea tissue Conc. Avg. / Iris tissue Conc. Avg. / Retina tissue Conc. Avg.: average; for Choroid tissue Conc. OS / Cornea Conc. OS / Cornea tissue Conc. OS / Iris Conc. OS / Iris tissue Conc. OS / Retina Conc. OS / Retina tissue Conc. OS: left eye; for Cornea Conc. OS / Cornea Conc. OD: cornea homogenate; for Iris Conc. OS / Iris Conc. OD: iris homogenate; for Retina Conc. OS / Retina Conc. OD: retina homogenate
Method: To measure the concentration of Compound 1 in plasma and ocular tissues following topical ocular, subcutaneous, and intravitreal administration, New Zealand White rabbits were administered Compound 1, and plasma and ocular samples were collected at pre-determined time points. Compound 1 formulations were prepared fresh on each day of dosing.
Ocular tissue samples from both eyes of each animal were collected and weights were recorded. Plasma and ocular tissue sample concentrations of Compound 1 were determined by LC-MS/MS.
Animals were anesthetized for ocular (topical) and intravitreal dosing following the 12IA7 IACUC protocol. Each rabbit received a bolus dose of test formulation either via topical ocular administration 3 times daily on Days 1 and 2 (at 0, 6, and 12 hours), and once on Day 3 (at 0 hours) into both eyes; via intravitreal administration into both eyes once on Day 1 (at 0 hours); or via subcutaneous administration 2 times daily on Days 1 and 2 (at 0 and 8 hours) and once daily on Day 3 (at 0 hours). Doses were given within an approximately 1 hour window each day where applicable.
On Day 1, for intravitreal administration, or on Day 3, for topical ocular and subcutaneous administration, at the appropriate ocular tissue collection time points, animals were euthanized and both eyes were enucleated immediately. Following enucleation, each eye was rinsed with phosphate-buffered saline. Ocular tissue samples from both eyes of each animal were collected at predetermined time points and weights were recorded. All the samples were frozen immediately on dry ice, and stored at −60° C. to −80° C. pending bioanalysis.
An LC-MS/MS method was developed for the determination of Compound 1 in rabbit aqueous tissues (plasma, aqueous and vitreous humor) and solid ocular tissue samples. A pre-study standard curve was analyzed to determine the specificity, range, and lower limit of quantitation of the method. Plasma and tissue homogenate study samples were extracted and analyzed. All the samples were treated identically to the standards.
One eight-point standard curve was used in each analytical batch. To be accepted, each batch must have had at least five of eight standards with accuracy within ±20% of nominal, except at the lower limit of quantification (LLOQ), where ±25% was acceptable.

- Choroid tissue Conc. OD (6.0 hr): 360800 ng/g and 829400 ng/g
- Choroid tissue Conc. Avg. (24 hr): 397650 ng/g
- Choroid tissue Conc. OS (24 hr): 312400 ng/g and 478500 ng/g
- Choroid tissue Conc. OD (24 hr): 167200 ng/g and 632500 ng/g
- Choroid tissue Conc. Avg. (48 hr): 120010 ng/g
- Choroid tissue Conc. OS (48 hr): 102520 ng/g
- Choroid tissue Conc. OD (48 hr): 109340 ng/g and 105380 ng/g
- Choroid tissue Conc. Avg. (72 hr): 27555 ng/g
- Choroid tissue Conc. OS (72 hr): 29260 ng/g and 32010 ng/g
- Choroid tissue Conc. OD (72 hr): 23980 ng/g and 24970 ng/g
- Cornea Conc. OS (6.0 hr): 3140 ng/mL and 1180 ng/mL
- Cornea Conc. OD (6.0 hr): 7910 ng/mL and 7610 ng/mL
- Cornea Conc. OS (24 hr): 1190 ng/mL and 1050 ng/mL
- Cornea Conc. OD (24 hr): 1520 ng/mL and 2520 ng/mL
- Cornea Conc. OS (48 hr): 293 ng/mL and 571 ng/mL
- Cornea Conc. OD (48 hr): 437 ng/mL and 384 ng/mL
- Cornea Conc. OS (72 hr): 117 ng/mL and 45.3 ng/mL
- Cornea Conc. OD (72 hr): 37.7 ng/mL and 77.2 ng/mL
- Cornea tissue Conc. Avg. (6.0 hr): 54560 ng/g
- Cornea tissue Conc. OS (6.0 hr): 34540 ng/g and 12980 ng/g
- Cornea tissue Conc. OD (6.0 hr): 87010 ng/g and 83710 ng/g
- Cornea tissue Conc. Avg. (24 hr): 17270 ng/g
- Cornea tissue Conc. OS (24 hr): 13090 ng/g and 11550 ng/g
- Cornea tissue Conc. OD (24 hr): 16720 ng/g and 27720 ng/g
- Cornea tissue Conc. Avg. (48 hr): 4634 ng/g
- Cornea tissue Conc. OS (48 hr): 3223 ng/g and 6281 ng/g
- Cornea tissue Conc. OD (48 hr): 4807 ng/g and 4224 ng/g
- Cornea tissue Conc. Avg. (72 hr): 762 ng/g
- Cornea tissue Conc. OS (72 hr): 1287 ng/g and 498 ng/g
- Cornea tissue Conc. OD (72 hr): 415 ng/g and 849 ng/g
- ocular tissue concentrations at 72 hours, free acid suspension relative to sodium salt solution (intravitreal administration): higher concentrations
- Iris Conc. OS (6.0 hr): 13800 ng/mL and 12200 ng/mL
- Iris Conc. OD (6.0 hr): 18500 ng/mL and 32100 ng/mL
- Iris Conc. OS (24 hr): 14100 ng/mL and 8200 ng/mL
- Iris Conc. OD (24 hr): 7670 ng/mL and 11000 ng/mL
- Iris Conc. OS (48 hr): 1950 ng/mL and 2030 ng/mL
- Iris Conc. OD (48 hr): 1010 ng/mL and 1110 ng/mL
- Iris Conc. OS (72 hr): 1800 ng/mL and 1320 ng/mL
- Iris Conc. OD (72 hr): 279 ng/mL and 351 ng/mL
- Iris tissue Conc. Avg. (6.0 hr): 210650 ng/g
- Iris tissue Conc. OS (6.0 hr): 151800 ng/g and 134200 ng/g
- Iris tissue Conc. OD (6.0 hr): 203500 ng/g and 353100 ng/g
- Iris tissue Conc. Avg. (24 hr): 112668 ng/g
- Iris tissue Conc. OS (24 hr): 155100 ng/g and 90200 ng/g
- Iris tissue Conc. OD (24 hr): 84370 ng/g and 121000 ng/g
- Iris tissue Conc. Avg. (48 hr): 16775 ng/g
- Iris tissue Conc. OS (48 hr): 21450 ng/g and 22330 ng/g
- Iris tissue Conc. OD (48 hr): 11110 ng/g and 12210 ng/g
- Iris tissue Conc. Avg. (72 hr): 10313 ng/g
- Iris tissue Conc. OS (72 hr): 19800 ng/g and 14520 ng/g
- Iris tissue Conc. OD (72 hr): 3069 ng/g and 3861 ng/g
- Retina Conc. OS (6.0 hr): 154000 ng/mL and 120000 ng/mL
- Retina Conc. OD (6.0 hr): 146000 ng/mL and 303000 ng/mL
- Retina Conc. OS (24 hr): 98900 ng/mL and 198000 ng/mL
- Retina Conc. OD (24 hr): 130000 ng/mL and 145000 ng/mL
- Retina Conc. OS (48 hr): 14000 ng/mL and 101000 ng/mL
- Retina Conc. OD (48 hr): 66700 ng/mL and 65500 ng/mL
- Retina Conc. OS (72 hr): 10800 ng/mL and 12900 ng/mL
- Retina Conc. OD (72 hr): 9890 ng/mL and 6070 ng/mL
- Retina tissue Conc. Avg. (6.0 hr): 1988250 ng/g
- Retina tissue Conc. OS (6.0 hr): 1694000 ng/g and 1320000 ng/g
- Retina tissue Conc. OD (6.0 hr): 1606000 ng/g
- Retina tissue Conc. Avg. (24 hr): 1572725 ng/g
- Retina tissue Conc. OS (24 hr): 1087900 ng/g and 2178000 ng/g
- Retina tissue Conc. OD (24 hr): 1430000 ng/g and 1595000 ng/g
- Retina tissue Conc. Avg. (48 hr): 679800 ng/g
- Retina tissue Conc. OS (48 hr): 154000 ng/g and 1111000 ng/g
- Retina tissue Conc. OD (48 hr): 733700 ng/g and 720500 ng/g
- Retina tissue Conc. Avg. (72 hr): 109065 ng/g
- Retina tissue Conc. OS (72 hr): 118800 ng/g and 141900 ng/g
- Retina tissue Conc. OD (72 hr): 108790 ng/g and 66770 ng/g
- distribution among iris, retina, choroid, cornea (FIG. 14) (subcutaneous 5 mg/kg/dose, free acid): generally higher in the iris and choroid
Compound: COC(=O)N[C@@H](Cc1ccccc1)C(=O)N[C@@H](Cc1ccc(NS(=O)(=O)O)cc1)c1csc(-c2cccs2)n1 [Compound 1 free acid]
- distribution among iris, retina, choroid, cornea (FIG. 16) (intravitreal 1.54 mg/kg, free acid): generally higher in the retina and choroid
